Test results: patent publication US11103448B2, “Manufacture of pharmaceutical compositions” (VECTURA LIMITED, priority 2003, dated 2021)

Experiment: Particle size distribution by Malvern particle sizer (dry powder)
Format: physicochemical
Description: The particle size distributions of these powdered materials indicate both the level of size reduction obtained by the co-milling, and the level of dispersion efficiency at varied pressures. The d(50) and d(97) plots provide a further indication of this dispersibility of the powders as a function of pressure.
Particle size distributions of the raw materials and selected formulations were determined by Malvern particle sizer, via the Scirroco dry powder disperser.
Twelve formulations were produced from the original powder, using the Hosokawa AS50 jet mill. Either the pure drug was passed through the mill or a blend of drug with 5% w/w of a force control agent added. The mill was used with a range of parameters. Primarily, these were injector air pressure, grinding air pressure and powder feed rate.

CN1C(=O)CC(=O)N(c2ccccc2)c2cc(Cl)ccc21 [clobozam]
d(50) (clobozam after co-jet milling): about 1 μm
d(50) (clobozam before co-jet milling): about 2.6 μm
